One block for each compound: values may come before it.
What was measured:
VEGFR2 (KDR) = target: T1, VEGFR2 (KDR) (Homo sapiens, UniProt P35968); assay: KDR-CD in vitro autophosphorylation kinase assay; type: biochemical; conditions: 30 minute preincubation of compound and enzyme; average of at least two separate determinations; 1 μM ATP
T1 construct: The isolated catalytic domain (Amino Acids 807-1356) of VEGFR2; 6xHis (N); made in house; host or cells: Sf9 insect cells (baculovirus, pFASTBac-HIS)
T1 sequence (P35968 807-1356): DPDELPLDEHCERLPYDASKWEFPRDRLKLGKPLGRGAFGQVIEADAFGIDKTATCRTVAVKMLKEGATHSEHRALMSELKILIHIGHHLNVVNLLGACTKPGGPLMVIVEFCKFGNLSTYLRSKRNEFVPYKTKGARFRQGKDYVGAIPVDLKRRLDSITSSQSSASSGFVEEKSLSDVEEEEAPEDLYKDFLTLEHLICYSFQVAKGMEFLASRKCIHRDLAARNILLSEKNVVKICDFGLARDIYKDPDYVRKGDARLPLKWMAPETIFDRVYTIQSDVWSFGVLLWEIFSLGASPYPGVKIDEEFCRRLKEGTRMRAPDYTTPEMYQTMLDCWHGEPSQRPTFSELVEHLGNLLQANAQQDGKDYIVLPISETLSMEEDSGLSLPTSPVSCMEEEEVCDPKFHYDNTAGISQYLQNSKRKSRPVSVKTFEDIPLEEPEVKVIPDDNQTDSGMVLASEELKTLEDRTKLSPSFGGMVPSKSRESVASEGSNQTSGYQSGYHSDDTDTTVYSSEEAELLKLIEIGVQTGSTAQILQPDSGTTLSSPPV
Procedure: The following assay is performed to measure the IC50 values of inhibition of phosphorylation of VEGF-R2 with compounds of the present invention.
Autophosphorylation Enzyme Assay
A. VEGFR2 (KDR) cloning and purification.
The isolated catalytic domain (Amino Acids 807-1356) of VEGFR2 (KDR-CD, cloned from a human heart cDNA library) is cloned by standard PCR procedures (pCR-Script to make plasmid P340) as a BamHI/HindIII fragment using the following primers: Upper: 5′-[…]-3′ and Lower: 5′-[…]-3′, its nucleotide sequence is verified and it is subcloned into the pFASTBac-HIS™ vector system (Gibco-BRL) (to give plasmid B344) for baculovirus expression. (Carroll, et al., J. Biol. Chem, 268, 12837-42 (1993). KDR-CD is expressed as an N-terminal 6×HIS fusion protein in Sf9 cells (Gibco-BRL) and purified according to standard affinity chromatography protocols (For example, Amersham Pharmacia Biotech: Affinity Chromatography Principles and Methods #18-1022-29). Briefly, 15-25 g pellets are lysed in lysis buffer (50 mM Tris pH 7.5, 150 mM NaCl, 0.5% NP40 (CalbioChem) with freshly added 20 mM -mercaptoethanol, 10 mM imidazole, 1 mM PMSF(protease inhibitor (phenylmethanesulfonyl fluoride) from Sigma), 1×EDTA-free complete protease inhibitor (Boehringer Mannheim)) on ice for 30 minutes. The cell lysates are cleared by centrifugation at 30,000 g for 20 minutes at 4° C., filtered through a […] and applied to a NiNTA™ column (Qiagen). Unbound protein is removed with successive RIPA buffer washes (50 mM Tris pH 7.5, 150 mM NaCl, 1% NP40, 1 mM EDTA, 0.25% sodium deoxycholate, 20 mM -mercaptoethanol), lysis buffer washes and finally 1× kinase buffer (KB) washes (100 mM HEPES pH 7.5, 10 mM MnCl2, 5 mM -mercaptoethanol). KDR protein is eluted in 1× KB containing a linear gradient of 200 mM imidazole over 10 column volumes. The peak fractions (based on a SDS-PAGE gel analysis) are combined, concentrated by Centricon™ to ˜1 mg/mL and desalted over an HR26/10 desalting column (Amersham Pharmacia) in 1× KB. This KDR prep is estimated to be ˜40% pure with only KDR tyrosine kinase activity detectable by anti-phosphotyrosine western analysis following the in vitro autophosphorylation reaction.
B. KDR-CD In Vitro Autophosphorylation Kinase Assay
Kinase reactions contain 1 μg total protein in 40 μL reaction volume containing 4% (v/v) DMSO final concentration, 1 μM ATP, 1 uCi/rxn ^33P-ATP (from NEN) in 1×KB. A compound dilution series of 20 μM to 1.0 nM is added to the above reaction to determine compound activity; test compound may be pre-incubated with KDR enzyme for up to 30 minutes at 30° C. prior to addition of the radiolabel. The radiolabeling reaction is carried out at 30° C. for 20 minutes before adding 100 μL 25% TCA with 3 mM ATP to stop the reaction, then precipitated with 50 μL 1 mg/mL BSA. The quenched reactions are transferred to MultiScreen™-FC plates (Millipore) and incubated for 1 hour at room temperature. The plates are filtered, washed 3× with 250 μL 10% TCA and blotted dry. MicroScint™20 (Packard) is added and the plate is counted on a Wallac Microbeta™. Dougher-Vermazen, M. et al., Biochem Biophys Res Commun 205(1): 728-738 (1994). The IC50 values are calculated from a logistic 4-parameter curve fit.
All values are determined using a 30 minute preincubation of compound and enzyme prior to initiating the labeling reaction and represent the average of at least two separate determinations: […]

[1] = tested on: PC-3 human prostate adenocarcinoma cells; assay: In vivo efficacy in PC-3 prostate tumor xenografts; set-up: species or system mice; key to Mean Tumor Volume: mg, volume calculated as l×w^2×0.536 from caliper diameters; conditions: for Signif. (tumor volume vs vehicle control, two-way ANOVA) / Mean Tumor Volume: oral gavage
Procedure: In Vivo Efficacy in PC-3 Prostate Tumor Xenografts
Male SCID mice (Fox Chase, Taconic laboratories) are implanted s.c. in the rear flank with 0.2 mL of a cell suspension prepared in serum-free media containing 5×10^6 PC-3 human prostate adenocarcinoma cells (obtained from ATCC). Example 130 is prepared as a suspension in 1% CMC/0.25% Tween 80 and administered by oral gavage for 21 days beginning after tumors reach approximately 150-200 mg (volume calculated by l×w^2×0.536 where l is the larger and w is the smaller of perpendicular diameters determined by caliper measurement). Example 130 is administered twice daily (12 hours apart) for the 15, 7.5, and 3.75 mg/kg doses while the 30 mg/kg dose is given once daily. Groups consists of 8 mice each and one group receives 0.2 mL of the CMC/Tween vehicle twice daily as a control.

SMILES: CC(C)(C)c1cc(NC(=O)Cc2ccc(-c3cnc4cc(-c5ccc(S(C)(=O)=O)cc5)ccn34)cc2F)no1 [Example 196, N-(5-tert-Butyl-isoxazol-3-yl)-2-{2-fluoro-4-[7-(4-methanesulfonyl-phenyl)-imidazo[1,2-a]pyridin-3-yl]-phenyl}-acetamide]
IC50 (VEGFR2 (KDR)): 106 nM

SMILES: CC(C)(C)c1cc(NC(=O)Cc2ccc(-c3cnc4cc(-c5cn[nH]c5)ccn34)cc2)no1 [Example 303, N-(5-tert-Butyl-isoxazol-3-yl)-2-{4-[7-(1H-pyrazol-4-yl)-imidazo[1,2-a]pyridin-3-yl]-phenyl}-acetamide]
IC50 (VEGFR2 (KDR)): 46 nM

SMILES: CC(C)(C)c1cc(NC(=O)Nc2ccc(-c3cnc4cc(-c5ccncc5)ccn34)cc2F)no1 [Example 130, 1-(5-tert-Butyl-isoxazol-3-yl)-3-[2-fluoro-4-(7-pyridin-4-yl-imidazo[1,2-a]pyridin-3-yl)-phenyl]-urea]
Signif. (tumor volume vs vehicle control, two-way ANOVA) ([1]; 3.75 mg/kg twice daily, Day 55): ** (**: 0.001 < p <= 0.01)
Mean Tumor Volume ([1]; 3.75 mg/kg twice daily, Day 55, PC-3 xenograft in male SCID mice): 268.1
Signif. (tumor volume vs vehicle control, two-way ANOVA) ([1]; 3.75 mg/kg twice daily, Day 57): *** (***: p <= 0.001)
Mean Tumor Volume ([1]; 3.75 mg/kg twice daily, Day 57, PC-3 xenograft in male SCID mice): 310.1
Signif. (tumor volume vs vehicle control, two-way ANOVA) ([1]; 7.5 mg/kg twice daily, Day 55): *** (***: p <= 0.001)
Mean Tumor Volume ([1]; 7.5 mg/kg twice daily, Day 55, PC-3 xenograft in male SCID mice): 100.8
Signif. (tumor volume vs vehicle control, two-way ANOVA) ([1]; 7.5 mg/kg twice daily, Day 57): *** (***: p <= 0.001)
Mean Tumor Volume ([1]; 7.5 mg/kg twice daily, Day 57, PC-3 xenograft in male SCID mice): 86.3
Signif. (tumor volume vs vehicle control, two-way ANOVA) ([1]; 15 mg/kg twice daily, Day 55): *** (***: p <= 0.001)
Mean Tumor Volume ([1]; 15 mg/kg twice daily, Day 55, PC-3 xenograft in male SCID mice): 67.7
Signif. (tumor volume vs vehicle control, two-way ANOVA) ([1]; 15 mg/kg twice daily, Day 57): *** (***: p <= 0.001)
Mean Tumor Volume ([1]; 15 mg/kg twice daily, Day 57, PC-3 xenograft in male SCID mice): 62.2
Signif. (tumor volume vs vehicle control, two-way ANOVA) ([1]; 30 mg/kg once daily, Day 55): *** (***: p <= 0.001)
Mean Tumor Volume ([1]; 30 mg/kg once daily, Day 55, PC-3 xenograft in male SCID mice): 95.7
Signif. (tumor volume vs vehicle control, two-way ANOVA) ([1]; 30 mg/kg once daily, Day 57): *** (***: p <= 0.001)
Mean Tumor Volume ([1]; 30 mg/kg once daily, Day 57, PC-3 xenograft in male SCID mice): 86.8
tumor volume, treatment groups versus control group at study termination ([1]; male SCID mice, oral gavage for 21 days, 15, 7.5, 3.75 mg/kg twice daily, 30 mg/kg once daily, two-way ANOVA): statistically different from the control group (p<0.001)
IC50 (VEGFR2 (KDR)): 42 nM

The remaining compounds from weak to strong by IC50 (VEGFR2 (KDR)), led by results:

IC50 (VEGFR2 (KDR)): 41 nM
SMILES: CC(C)(C)c1cc(NC(=O)Cc2ccc(-c3cnc4cc(-c5ccncc5)ccn34)cc2)ncn1 [Example 289, N-(6-tert-Butyl-pyrimidin-4-yl)-2-[4-(7-pyridin-4-yl-imidazo[1,2-a]pyridin-3-yl)-phenyl]-acetamide]

IC50 (VEGFR2 (KDR)): 28 nM
SMILES: CC(C)(C)c1cnc(NC(=O)NCc2ccc(-c3cnc4cc(-c5ccncc5)ccn34)cc2)s1 [Example 39, 1-(5-tert-Butyl-thiazol-2-yl)-3-[4-(7-pyridin-4-yl-imidazo[1,2-a]pyridin-3-yl)-benzyl]-urea, methane sulfonate]

IC50 (VEGFR2 (KDR)): 26 nM
SMILES: O=C(Cc1ccc(-c2cnc3cc(-c4ccncc4)ccn23)cc1)Nc1cccc(C(F)(F)F)c1 [Example 173, 2-[4-(7-Pyridin-4-yl-imidazo[1,2-a]pyridin-3-yl)-phenyl]-N-(3-trifluoromethyl-phenyl)-acetamide]

From patent publication US7666879B2, “Imidazo[1,2-A]pyridine compounds as VEGF-R2 inhibitors” (Eli Lilly and Company, priority 2005, dated 2010)
